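Cultured in 96-well plates, cells were exposed to test compound for 48 hours across five concentrations. Here, GI50 denotes the concentration required for 50% inhibition of growth.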 Active and inactive are the calls of the source. No stated cut-off is given here; in the data, active = GI50 up to about 1.1 µM and inactive = higher.
How the values were obtained:
Assay in all cases: NCI anticancer screen, dose series, 48 h
[1] = tested on: Malme-3M
[2] = tested on: NCI-H226
[3] = tested on: HCT-15
[4] = tested on: SK-MEL-5
[5] = tested on: NCI-H522
[6] = tested on: NCI-H460
[7] = tested on: KM12
[8] = tested on: UACC-257
[9] = tested on: SF-268
[10] = tested on: SK-MEL-2
[11] = tested on: TK-10
[12] = tested on: OVCAR-8
[13] = tested on: SNB-75
[14] = tested on: M19-MEL
[15] = tested on: A549
[16] = tested on: SK-OV-3
[17] = tested on: CCRF-CEM
[18] = tested on: BT-549
[19] = tested on: T47D

| SMILES | GI50 [1] | GI50 [2] | GI50 [3] [µM] | GI50 [4] | GI50 [5] | GI50 [6] | GI50 [7] | GI50 [8] | GI50 [9] | GI50 [10] | GI50 [11] | GI50 [12] | GI50 [13] | GI50 [14] | GI50 [15] | GI50 [16] | GI50 [17] | GI50 [18] | GI50 [19] |
| --- | --- | --- | --- | --- | --- | --- | --- | --- | --- | --- | --- | --- | --- | --- | --- | --- | --- | --- | --- |
| Clc1ccc(OCc2nnc3n2N=C(c2ccccc2)CS3)c(Cl)c1 | > 100 µM (inactive) | 9.84 µM (inactive) | > 100 | 8.28 µM (inactive) | 3.81 µM (inactive) | 5 µM (inactive) | > 100 µM (inactive) | 56.2 µM (inactive) | 8.73 µM (inactive) | > 100 µM (inactive) | 7.98 µM (inactive) | 7.33 µM (inactive) | 3.02 µM (inactive) | > 100 µM (inactive) | 6.5 µM (inactive) | > 100 µM (inactive) | 4.03 µM (inactive) | – | – |
| N#CCC(=O)Nc1cccc(C(F)(F)F)c1 | > 100 µM (inactive) | > 100 µM (inactive) | > 100 | > 100 µM (inactive) | > 100 µM (inactive) | > 100 µM (inactive) | > 100 µM (inactive) | > 100 µM (inactive) | > 100 µM (inactive) | > 100 µM (inactive) | > 100 µM (inactive) | > 100 µM (inactive) | > 100 µM (inactive) | > 100 µM (inactive) | > 100 µM (inactive) | > 100 µM (inactive) | > 100 µM (inactive) | – | – |
| C/C(=N\NC(=S)N1CC2CCC(CC2)C1)c1nccs1 | 0.435 µM (active) | 0.479 µM (active) | 0.0516 | 0.153 µM (active) | 0.0471 µM (active) | 0.0483 µM (active) | 0.133 µM (active) | 0.113 µM (active) | 0.294 µM (active) | 0.679 µM (active) | 0.975 µM (active) | 0.114 µM (active) | 3.33 µM (inactive) | 0.288 µM (active) | 0.19 µM (active) | 0.809 µM (active) | < 0.01 µM (active) | 1.07 µM (active) | – |
| CC(C)C1=CC(=O)C(C)(C2=NC(C)(C)CO2)c2ccccc21 (stereo unspecified) | > 100 µM (inactive) | 51.5 µM (inactive) | > 100 | > 100 µM (inactive) | 32.9 µM (inactive) | > 100 µM (inactive) | > 100 µM (inactive) | 63.8 µM (inactive) | > 100 µM (inactive) | > 100 µM (inactive) | > 100 µM (inactive) | > 100 µM (inactive) | 96.4 µM (inactive) | > 100 µM (inactive) | > 100 µM (inactive) | 88.5 µM (inactive) | > 100 µM (inactive) | – | – |
| CCCCCCCCCCCCCC(=O)NCO | > 100 µM (inactive) | > 100 µM (inactive) | > 100 | > 100 µM (inactive) | 86.3 µM (inactive) | > 100 µM (inactive) | > 100 µM (inactive) | > 100 µM (inactive) | > 100 µM (inactive) | > 100 µM (inactive) | > 100 µM (inactive) | > 100 µM (inactive) | > 100 µM (inactive) | > 100 µM (inactive) | > 100 µM (inactive) | > 100 µM (inactive) | > 100 µM (inactive) | – | – |
| CCCCCCCCCCCC(=O)OCCOCCOCCOCCOCCOCc1ccccc1 | > 100 µM (inactive) | > 100 µM (inactive) | > 100 | > 100 µM (inactive) | > 100 µM (inactive) | > 100 µM (inactive) | > 100 µM (inactive) | > 100 µM (inactive) | > 100 µM (inactive) | > 100 µM (inactive) | > 100 µM (inactive) | > 100 µM (inactive) | > 100 µM (inactive) | > 100 µM (inactive) | > 100 µM (inactive) | > 100 µM (inactive) | > 100 µM (inactive) | – | – |
| COc1cc2c(cc1OC)C(Cl)C(c1ccc(F)cc1)=C2Cl (stereo unspecified) | 13.2 µM (inactive) | 22.7 µM (inactive) | 12.9 | 14.1 µM (inactive) | 7.73 µM (inactive) | 11.5 µM (inactive) | 16.1 µM (inactive) | 14.9 µM (inactive) | 15.7 µM (inactive) | 12.8 µM (inactive) | 13.6 µM (inactive) | 14.7 µM (inactive) | 14.6 µM (inactive) | 16.8 µM (inactive) | 14.9 µM (inactive) | 20.1 µM (inactive) | 5.77 µM (inactive) | 4.79 µM (inactive) | 10 µM (inactive) |
| O=C1C2=C(c3ccccc31)C(c1ccc([N+](=O)[O-])cc1)NC(S)=N2 (stereo unspecified) | 80.7 µM (inactive) | 19.2 µM (inactive) | 51.9 | 27.4 µM (inactive) | 30.5 µM (inactive) | 67.8 µM (inactive) | 87.7 µM (inactive) | > 100 µM (inactive) | 42.2 µM (inactive) | 96.8 µM (inactive) | > 100 µM (inactive) | > 10 µM (inactive) | 23.9 µM (inactive) | 78.9 µM (inactive) | 48.5 µM (inactive) | > 100 µM (inactive) | 38.7 µM (inactive) | – | – |
| O=CC[C@H]1C(=O)C[C@@H]2CCC[C@@H]21 | > 100 µM (inactive) | 80.4 µM (inactive) | 45.7 | 33.5 µM (inactive) | > 100 µM (inactive) | > 100 µM (inactive) | 51.8 µM (inactive) | > 100 µM (inactive) | 89.1 µM (inactive) | 59.2 µM (inactive) | > 100 µM (inactive) | 43.1 µM (inactive) | 64.4 µM (inactive) | 56.2 µM (inactive) | > 100 µM (inactive) | > 100 µM (inactive) | 34.1 µM (inactive) | – | – |
| Cc1c(Cl)ccc2c1NC(=O)C2(O)C(C(=O)c1ccccc1)c1ccccc1 (stereo unspecified) | 93.3 µM (inactive) | 88.5 µM (inactive) | 45.7 | 23.3 µM (inactive) | 27.7 µM (inactive) | 64.9 µM (inactive) | 55.3 µM (inactive) | 28.7 µM (inactive) | 62.7 µM (inactive) | > 100 µM (inactive) | 52 µM (inactive) | 69.7 µM (inactive) | 46.7 µM (inactive) | 14.7 µM (inactive) | 98.2 µM (inactive) | > 100 µM (inactive) | 14.7 µM (inactive) | – | – |
| COc1c(C)n(CCO)ccc1=O | > 100 µM (inactive) | > 100 µM (inactive) | > 100 | > 100 µM (inactive) | > 100 µM (inactive) | > 100 µM (inactive) | > 100 µM (inactive) | > 100 µM (inactive) | > 100 µM (inactive) | > 100 µM (inactive) | > 100 µM (inactive) | > 100 µM (inactive) | > 100 µM (inactive) | > 100 µM (inactive) | > 100 µM (inactive) | > 100 µM (inactive) | > 100 µM (inactive) | – | – |
| Cc1ccc(NC(=O)C(=O)Cc2cccc[n+]2[O-])cc1C | > 100 µM (inactive) | > 100 µM (inactive) | > 100 | > 100 µM (inactive) | > 100 µM (inactive) | > 100 µM (inactive) | > 100 µM (inactive) | > 100 µM (inactive) | > 100 µM (inactive) | > 100 µM (inactive) | > 100 µM (inactive) | > 100 µM (inactive) | > 100 µM (inactive) | > 100 µM (inactive) | > 100 µM (inactive) | > 100 µM (inactive) | > 100 µM (inactive) | – | – |
| CC(=O)Nc1ccc(S(=O)(=O)N/N=C(\C)CN2C(=O)c3ccccc3C2=O)cc1 | > 100 µM (inactive) | > 100 µM (inactive) | > 100 | > 100 µM (inactive) | > 100 µM (inactive) | > 100 µM (inactive) | > 100 µM (inactive) | > 100 µM (inactive) | – | > 100 µM (inactive) | > 100 µM (inactive) | > 100 µM (inactive) | 75.5 µM (inactive) | > 100 µM (inactive) | > 100 µM (inactive) | > 100 µM (inactive) | > 100 µM (inactive) | – | – |
| CCOC(=O)COc1ccc(OCC(=O)OCC)c2c1C(=O)CCCC2=O | > 100 µM (inactive) | > 100 µM (inactive) | > 100 | 0.26 µM (active) | > 100 µM (inactive) | > 100 µM (inactive) | > 100 µM (inactive) | > 100 µM (inactive) | > 100 µM (inactive) | > 100 µM (inactive) | > 100 µM (inactive) | > 100 µM (inactive) | > 100 µM (inactive) | > 100 µM (inactive) | > 100 µM (inactive) | > 100 µM (inactive) | > 100 µM (inactive) | – | – |
| NC(=O)CCC(NC(=O)C(F)(F)F)C(=O)O (stereo unspecified) | > 100 µM (inactive) | > 100 µM (inactive) | > 100 | > 100 µM (inactive) | > 100 µM (inactive) | > 100 µM (inactive) | > 100 µM (inactive) | > 100 µM (inactive) | > 100 µM (inactive) | > 100 µM (inactive) | > 100 µM (inactive) | > 100 µM (inactive) | > 100 µM (inactive) | > 100 µM (inactive) | > 100 µM (inactive) | > 100 µM (inactive) | > 100 µM (inactive) | – | – |
| CC(C)C(=O)NC(=S)Nc1ccc([N+](=O)[O-])cc1C#N | > 100 µM (inactive) | 25.1 µM (inactive) | > 100 | > 100 µM (inactive) | > 100 µM (inactive) | > 100 µM (inactive) | > 100 µM (inactive) | > 100 µM (inactive) | > 100 µM (inactive) | > 100 µM (inactive) | > 100 µM (inactive) | > 100 µM (inactive) | 16.7 µM (inactive) | > 100 µM (inactive) | > 100 µM (inactive) | > 100 µM (inactive) | > 100 µM (inactive) | – | – |
| Cc1ccc(NC(=O)CC/C(CC(=O)c2ccc(F)cc2)=N\NC(=O)C(=O)NN)cc1C | > 100 µM (inactive) | > 100 µM (inactive) | > 100 | > 100 µM (inactive) | > 100 µM (inactive) | > 100 µM (inactive) | > 100 µM (inactive) | > 100 µM (inactive) | > 100 µM (inactive) | > 100 µM (inactive) | > 100 µM (inactive) | > 100 µM (inactive) | > 100 µM (inactive) | > 100 µM (inactive) | > 100 µM (inactive) | > 100 µM (inactive) | > 100 µM (inactive) | – | – |
